# Earlier results as cited in patent EP2742940A1, “Salts of aza-bicyclo-di-aryl ethers for adminstration once daily, twice daily or thrice daily” (IP Gesellschaft für Management mbH, priority 2012, dated 2014).
# “And” between values parts separate entries of the source, which are not always exact repeats. Equal entries are not always repeated. Where two headings read alike, the source gives them in different places.
# How the values were obtained:
# [1] = set-up: Initial water content / Hygroscopy @ 85%RH: unit not given here
# α7-nAChR = biological target: T1, α7-nAChR (Homo sapiens, UniProt P36544); details: Emax relative to epibatidine response
# T1 construct: expressed in transfected cells; host or cells: GH3 cells
# α4β2-nAChR = biological target: T2, α4β2-nAChR (Homo sapiens, UniProt P17787+P43681)
# T2 construct: expressed in transfected cells
# [2] = mice; for Brain (pmoles/g)±SD) / Plasma (pmoles/ml±SD): 30 µmol/kg p.o.
# mice = details: mouse, oral, Dose 0.3 mg/kg, familiar partner at 24 h vs time 0
# [3] = male Wistar rats, oral 10 mg/kg, Mean All (n=8)
# [4] = male Wistar rats, oral 10 mg/kg, individual rats 01-08, listed as free base, 10 mg/kg
# T1 sequence (P36544 23-502): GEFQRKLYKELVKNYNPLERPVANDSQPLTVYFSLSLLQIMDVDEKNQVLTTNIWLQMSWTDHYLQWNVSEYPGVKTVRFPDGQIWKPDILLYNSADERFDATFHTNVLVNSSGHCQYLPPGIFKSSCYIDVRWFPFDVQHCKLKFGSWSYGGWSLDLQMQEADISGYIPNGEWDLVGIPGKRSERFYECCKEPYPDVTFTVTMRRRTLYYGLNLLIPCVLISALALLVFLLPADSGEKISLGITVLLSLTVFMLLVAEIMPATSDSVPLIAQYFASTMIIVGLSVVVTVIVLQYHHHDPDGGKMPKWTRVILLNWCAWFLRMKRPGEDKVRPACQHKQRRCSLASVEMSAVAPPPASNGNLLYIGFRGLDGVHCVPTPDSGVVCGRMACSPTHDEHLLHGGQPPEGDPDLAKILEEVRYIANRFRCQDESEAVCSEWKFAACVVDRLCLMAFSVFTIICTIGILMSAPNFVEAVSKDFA
# T2 sequence (P43681 29-627 limits assumed): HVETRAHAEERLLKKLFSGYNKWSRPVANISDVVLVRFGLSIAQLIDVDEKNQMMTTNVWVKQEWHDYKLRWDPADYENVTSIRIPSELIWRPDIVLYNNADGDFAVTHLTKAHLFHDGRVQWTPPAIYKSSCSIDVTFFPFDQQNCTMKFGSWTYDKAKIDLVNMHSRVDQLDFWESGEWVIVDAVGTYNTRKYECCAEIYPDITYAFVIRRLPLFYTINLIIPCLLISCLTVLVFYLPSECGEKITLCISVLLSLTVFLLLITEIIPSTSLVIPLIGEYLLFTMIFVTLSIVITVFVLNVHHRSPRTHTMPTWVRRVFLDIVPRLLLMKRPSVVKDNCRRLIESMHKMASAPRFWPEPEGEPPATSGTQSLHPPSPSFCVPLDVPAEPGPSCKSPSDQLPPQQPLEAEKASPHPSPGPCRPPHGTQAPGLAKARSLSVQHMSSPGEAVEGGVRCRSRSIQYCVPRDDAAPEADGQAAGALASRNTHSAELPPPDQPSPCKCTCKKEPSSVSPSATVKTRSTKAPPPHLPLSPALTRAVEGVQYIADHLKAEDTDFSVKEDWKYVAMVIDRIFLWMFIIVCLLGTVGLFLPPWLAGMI
# T2 sequence (P17787 26-502): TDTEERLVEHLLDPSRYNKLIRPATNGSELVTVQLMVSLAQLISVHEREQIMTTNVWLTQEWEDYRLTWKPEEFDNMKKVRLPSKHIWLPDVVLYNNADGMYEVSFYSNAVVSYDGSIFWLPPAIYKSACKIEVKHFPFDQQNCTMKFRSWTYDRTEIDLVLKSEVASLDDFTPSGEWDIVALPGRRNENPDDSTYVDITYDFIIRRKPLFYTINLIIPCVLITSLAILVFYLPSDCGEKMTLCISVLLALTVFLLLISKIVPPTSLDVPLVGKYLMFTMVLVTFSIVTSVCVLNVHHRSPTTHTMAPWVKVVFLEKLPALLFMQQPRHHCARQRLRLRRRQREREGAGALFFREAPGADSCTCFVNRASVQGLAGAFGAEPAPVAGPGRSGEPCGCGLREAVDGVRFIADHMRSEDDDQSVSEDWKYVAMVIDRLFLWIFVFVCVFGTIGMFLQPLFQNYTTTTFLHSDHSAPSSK
smiles,measurement,setting,value
"Cc1ccc(-c2ccc(O[C@H]3CN4CCC3CC4)cn2)cc1 [Compound A, (R)-3-(6-(4-methylphenyl)-pyridin-3-yloxy)-1-aza-bicyclo[2.2.2]octane]",Hygroscopy @ 85%RH,[1]; 85%RH,∼2
same,Initial water content,[1]; Example 7 comparison of salt forms,0.1
same,moisture gain,[1]; at 93% relative humidity (RH),2%
same,α7-nAChR activity Efficacy compared to epibatidine (100%),α7-nAChR,75%
same,EC50,α4β2-nAChR,> 100 µM
same,Brain (pmoles/g)±SD),[2]; 0.25 hour,4631 ± 1717 pmol/g
same,Plasma (pmoles/ml±SD),[2]; 0.25 hour,573 ± 234 pmol/mL
same,Brain (pmoles/g)±SD),[2]; 0.5 hour,11430 ± 3441 pmol/g
same,Plasma (pmoles/ml±SD),[2]; 0.5 hour,559 ± 143 pmol/mL
same,Brain (pmoles/g)±SD),[2]; 1 hour,14948 ± 4716 pmol/g
same,Plasma (pmoles/ml±SD),[2]; 1 hour,322 ± 135 pmol/mL
same,Brain (pmoles/g)±SD),[2]; 4 hour,1272 ± 715 pmol/g
same,Plasma (pmoles/ml±SD),[2]; 4 hour,20 ± 16 pmol/mL
same,Brain (pmoles/g)±SD),[2]; 8 hour,58 ± 27 pmol/g
same,time for which brain concentration is beyond (or at least equal) to the compound's EC50 at the a7-nAChR,"[2]; acute oral dose of 30 pmol/kg (so in the source), free base form",at least 4 hours
same,Reduction in time scrutinizing in % ± SEM at 24 h,mice,36 ± 6%
same,AUClast,[3],200 ng·h/mL
same,AUClast/Dose (h·ng/mL)/(mg/kg),[3],20.4 (h·ng/mL)/(mg/kg)
same,Cmax,[3],112 ng/mL
same,Cmax/Dose (ng/mL)/(mg/kg),[3],11.3 (ng/mL)/(mg/kg)
same,"Concentration in plasma, Time (h) 0.25",[3],100 ng/mL
same,"Concentration in plasma, Time (h) 0.5",[3],83.5 ng/mL
same,"Concentration in plasma, Time (h) 1",[3],52.7 ng/mL
same,"Concentration in plasma, Time (h) 2",[3],31.2 ng/mL
same,"Concentration in plasma, Time (h) 3",[3],16.2 ng/mL
same,"Concentration in plasma, Time (h) 4",[3],10.3 ng/mL
same,"Concentration in plasma, Time (h) 6",[3],437 ng/mL
same,"Concentration in plasma, Time (h) 8",[3],354 ng/mL
same,"Concentration in plasma, Time (h) 24",[3],0.822 ng/mL
same,AUClast,[4],141 ng·h/mL and 123 ng·h/mL and 238 ng·h/mL and 136 ng·h/mL and 214 ng·h/mL and 296 ng·h/mL and 234 ng·h/mL and 236 ng·h/mL
same,AUClast/Dose (h·ng/mL)/(mg/kg),[4],14.0 (h·ng/mL)/(mg/kg) and 12.0 (h·ng/mL)/(mg/kg) and 24.4 (h·ng/mL)/(mg/kg) and 13.5 (h·ng/mL)/(mg/kg) and 21.6 (h·ng/mL)/(mg/kg) and 29.7 (h·ng/mL)/(mg/kg) and 23.4 (h·ng/mL)/(mg/kg) and 24.5 (h·ng/mL)/(mg/kg)
same,Cmax,[4],58.8 ng/mL and 89.6 ng/mL and 83.0 ng/mL and 94.8 ng/mL and 119 ng/mL and 188 ng/mL and 117 ng/mL and 145 ng/mL
same,Cmax/Dose (ng/mL)/(mg/kg),[4],5.81 (ng/mL)/(mg/kg) and 8.79 (ng/mL)/(mg/kg) and 8.50 (ng/mL)/(mg/kg) and 9.40 (ng/mL)/(mg/kg) and 12.0 (ng/mL)/(mg/kg) and 18.9 (ng/mL)/(mg/kg) and 11.7 (ng/mL)/(mg/kg) and 15.0 (ng/mL)/(mg/kg)
same,"Concentration in plasma, Time (h) 0.25",[4],58.8 ng/mL and 89.68 ng/mL and 3.0 ng/mL and 79.4 ng/mL and 105 ng/mL and 188 ng/mL and 49.0 ng/mL and 145 ng/mL
same,"Concentration in plasma, Time (h) 0.5",[4],34.8 ng/mL and 51.2 ng/mL and 64.5 ng/mL and 94.8 ng/mL and 119 ng/mL and 122 ng/mL and 117 ng/mL and 65.0 ng/mL
same,"Concentration in plasma, Time (h) 1",[4],20.1 ng/mL and 63.9 ng/mL and 36.0 ng/mL and 65.8 ng/mL and 83.6 ng/mL and 87.0 ng/mL and 33.8 ng/mL
same,"Concentration in plasma, Time (h) 2",[4],679 ng/mL and 12.6 ng/mL and 51.7 ng/mL and 16.2 ng/mL and 43.2 ng/mL and 46.9 ng/mL and 42.2 ng/mL and 29.9 ng/mL
same,"Concentration in plasma, Time (h) 3",[4],531 ng/mL and 838 ng/mL and 26.3 ng/mL and 784 ng/mL and 23.0 ng/mL and 34.4 ng/mL and 18.4 ng/mL and 620 ng/mL
same,"Concentration in plasma, Time (h) 4",[4],394 ng/mL and 3.99 ng/mL and 18.2 ng/mL and 454 ng/mL and 8.63 ng/mL and 21.1 ng/mL and 13.8 ng/mL and 8.55 ng/mL
same,"Concentration in plasma, Time (h) 6",[4],487 ng/mL and 181 ng/mL and 662 ng/mL and 127 ng/mL and 5.32 ng/mL and 438 ng/mL and 4.59 ng/mL and 606 ng/mL
same,"Concentration in plasma, Time (h) 8",[4],662 ng/mL and 0.812 ng/mL and 246 ng/mL and 1.32 ng/mL and 367 ng/mL and 154 ng/mL and 225 ng/mL and 967 ng/mL
same,T1/2,[4],8.67 h and 3.24 h and 367 h
same,Tlast,[4],24.0 h (3×) and 8.0 h
same,AUClast,"rats, acute oral dosing of 10 mg/kg",200+-62 h ng/ml
